Test results published in EP1561465A2, “Methods of use of fluoroquinolone compounds against bacteria” (LG Life Sciences, Ltd., priority 1999, dated 2001).
In brackets after ≈: the same amount, converted by molar mass. Where two headings read alike, the source gives them in different places.

Experiments:
Type in all cases: cell-based
Staphylococcus aureus = assay: microbe, parasite or virus in culture; settings: for MIC50 / MIC90 / MIC: Staphylococcus aureus; for MIC90: read-out: MIC90
Escherichia coli = assay: MIC by NCCLS broth microdilution, 1100 Japanese clinical isolates 1997-1998; settings: for MIC50 / MIC90: Escherichia coli
[1] = system: Staphylococcus epidermidis; assay: as above; settings: for MIC50 / MIC90: Staphylococcus epidermidis
[2] = MIC by agar dilution, Brucella HK agar, 491 anaerobic clinical isolates; settings: clinical isolates of Bacteroides spp., Prevotella bivia and other Prevotella spp.
[3] = system: Gram positive anaerobic and facultative anaerobic pathogens; assay: microbe, parasite or virus in culture
Haemophilus influenzae = assay: MIC by agar dilution (NCCLS), 411 isolates Buenos Aires 1998-99; settings: Haemophilus influenzae (n = 65)
Streptococcus pneumoniae = assay: MIC by broth microdilution (NCCLS), dried MicroScan panels, clinical isolates 1998-1999; settings: for MIC90: Streptococcus pneumoniae
Streptococcus pyogenes = assay: MIC by agar dilution (NCCLS), 411 isolates Buenos Aires 1998-99
Yersinia enterocolitica = assay: MIC by agar dilution (NCCLS M7-A4), 288 enteropathogenic isolates, eight quinolones; settings: Yersinia enterocolitica (n = 22)
Acinetobacter spp. = assay: MIC by agar dilution (NCCLS), 322 nosocomial Gram negative isolates, Athens 1998; settings: n = 38 strains
[4] = S. aureus KU2240, mutant type Wild (wild strain)
[5] = S. aureus KU2241, mutant type NorA (efflux-mediated quinolone resistant)
[6] = S. aureus KU2242, mutant type T (DNA topoisomerase IV)
[7] = S. aureus KU2243, mutant type G+T (DNA gyrase and topoisomerase IV)
[8] = S. aureus KU2244, mutant type G (DNA gyrase)
[9] = S. aureus KU2246, mutant type T (DNA topoisomerase IV)
[10] = Escherichia coli ciprofloxacin resistant (n=5)
[11] = Escherichia coli ciprofloxacin susceptible (n=37)
[12] = Escherichia coli ciprofloxacin resistant (n=5), values marked *: MIC80 value
[13] = Staphylococcus epidermidis oxacillin resistant (n=43)
[14] = Staphylococcus epidermidis oxacillin susceptible (n=35)
[15] = Bifidobacterium adolescentis, ATCC15703
[16] = Bifidobacterium bifidum, JCM1255
[17] = Bifidobacterium breve, ATCC15700
[18] = Bifidobacterium longum, ATCC15707
[19] = Bifidobacterium pseudolongum, ATCC25526
[20] = Clostridium perfringens, ATCC13124
[21] = Clostridium septicum, ATCC12464
[22] = Lacticaseibacillus casei, JCM1134
[23] = Lactiplantibacillus plantarum, JCM1149
[24] = Lactobacillus acidophilus, JCM1132
[25] = Levilactobacillus brevis, JCM1059
[26] = Ligilactobacillus salivarius, JCM1231
[27] = Limosilactobacillus reuteri, JCM1112
[28] = Limosilactobacillus reuteri, JCM1173
[29] = Paraclostridium sordellii, ATCC9714
[30] = Peptostreptococcus anaerobius, ATCC27337
[31] = Staphylococcus saccharolyticus, ATCC14953
[32] = Streptococcus constellatus, ATCC27823
[33] = Streptococcus intermedius, ATCC27335
[34] = Thomasclavelia ramosa, ATCC25582
[35] = Streptococcus pneumoniae (302 isolates)

C[C@@H]1CN(c2c(F)c(N)c3c(=O)c(C(=O)O)cn(C4CC4)c3c2F)C[C@H](C)N1 [Sparfloxacin, sparfloxacin]
MIC Range (Staphylococcus aureus; Methicillin-resistant (38)): 0.063 to 64 mg/L
MIC Range (Staphylococcus aureus; Methicillin-susceptible (9)): 0.063 to 0.5 mg/L
MIC50 (Staphylococcus aureus; Methicillin-resistant (38)): 2 mg/L (≈ 5.1 µM)
MIC90 (Staphylococcus aureus; Methicillin-resistant (38)): 64 mg/L (≈ 163 µM)
MIC50 (Staphylococcus aureus; Methicillin-susceptible (9)): 0.125 mg/L (≈ 0.319 µM)
MIC (Staphylococcus aureus; [4]): 0.25 mg/L (≈ 0.637 µM)
MIC (Staphylococcus aureus; [5]): 0.25 mg/L (≈ 0.637 µM)
MIC (Staphylococcus aureus; [6]): 0.25 mg/L (≈ 0.637 µM)
MIC (Staphylococcus aureus; [7]): 64 mg/L (≈ 163 µM)
MIC (Staphylococcus aureus; [8]): 0.25 mg/L (≈ 0.637 µM)
MIC (Staphylococcus aureus; S. aureus KU2245, mutant type G+T (DNA gyrase and topoisomerase IV)): 64 mg/L (≈ 163 µM)
MIC (Staphylococcus aureus; [9]): 0.25 mg/L (≈ 0.637 µM)
MIC Range (Escherichia coli; [10]): 8 to 128 mg/L
MIC Range (Escherichia coli; [11]): ≤0.008 to 0.25 mg/L
MIC50 (Escherichia coli; [10]): 32 mg/L (≈ 81.5 µM)
MIC90 (Escherichia coli; [12]): 128 mg/L (≈ 326 µM)
MIC50 (Escherichia coli; [11]): 0.016 mg/L (≈ 0.0408 µM)
MIC90 (Escherichia coli; [11]): 0.032 mg/L (≈ 0.0815 µM)
MIC Range [1, 13]: 0.032 to 16 mg/L
MIC Range [1, 14]: 0.032 to 8 mg/L
MIC50 [1, 13]: 4 mg/L (≈ 10.2 µM)
MIC90 [1, 13]: 8 mg/L (≈ 20.4 µM)
MIC50 [1, 14]: 0.063 mg/L (≈ 0.161 µM)
MIC90 [1, 14]: 4 mg/L (≈ 10.2 µM)
MIC90 [2]: 4 to 32 mg/L (≈ 10.2 to 81.5 µM)
MIC [3, 15]: 0.5 mg/L (≈ 1.27 µM)
MIC [3, 16]: 2 mg/L (≈ 5.1 µM)
MIC [3, 17]: 2 mg/L (≈ 5.1 µM)
MIC [3, 18]: 2 mg/L (≈ 5.1 µM)
MIC [3, 19]: 2 mg/L (≈ 5.1 µM)
MIC ([3]; Clostridioides difficile): 8 mg/L (≈ 20.4 µM)
MIC [3, 20]: 0.125 mg/L (≈ 0.319 µM)
MIC [3, 21]: 0.125 mg/L (≈ 0.319 µM)
MIC ([3]; Cutibacterium acnes, ATCC11828): 0.25 mg/L (≈ 0.637 µM)
MIC ([3]; Eggerthella lenta, ATCC25559): 0.5 mg/L (≈ 1.27 µM)
MIC ([3]; Finegoldia magna, ATCC29328): 0.125 mg/L (≈ 0.319 µM)
MIC ([3]; Gemella morbillorum, ATCC27824): 0.25 mg/L (≈ 0.637 µM)
MIC [3, 22]: 0.125 mg/L (≈ 0.319 µM)
MIC [3, 23]: 8 mg/L (≈ 20.4 µM)
MIC [3, 24]: 32 mg/L (≈ 81.5 µM)
MIC [3, 25]: 2 mg/L (≈ 5.1 µM)
MIC [3, 26]: 0.5 mg/L (≈ 1.27 µM)
MIC [3, 27]: 2 mg/L (≈ 5.1 µM)
MIC [3, 28]: 2 mg/L (≈ 5.1 µM)
MIC [3, 29]: 2 mg/L (≈ 5.1 µM)
MIC ([3]; Parvimonas micra): 0.5 mg/L (≈ 1.27 µM)
MIC ([3]; Peptoniphilus asaccharolyticus): 0.25 mg/L (≈ 0.637 µM)
MIC ([3]; Peptoniphilus indolicus): 0.06 mg/L (≈ 0.153 µM)
MIC [3, 30]: 0.5 mg/L (≈ 1.27 µM)
MIC ([3]; Schaalia odontolytica): 4 mg/L (≈ 10.2 µM)
MIC [3, 31]: 0.25 mg/L (≈ 0.637 µM)
MIC [3, 32]: 0.5 mg/L (≈ 1.27 µM)
MIC [3, 33]: 0.5 mg/L (≈ 1.27 µM)
MIC [3, 34]: 4 mg/L (≈ 10.2 µM)

N[C@@H]1[C@H]2CN(c3nc4c(cc3F)c(=O)c(C(=O)O)cn4-c3ccc(F)cc3F)C[C@@H]12 [Trovafloxacin, trovafloxacin]
MIC Range (Staphylococcus aureus; Methicillin-resistant (38)): 0.031 to 16 mg/L
MIC Range (Staphylococcus aureus; Methicillin-susceptible (9)): 0.031 to 0.5 mg/L
MIC90 (Staphylococcus aureus; Methicillin-resistant (38)): 16 mg/L (≈ 38.4 µM)
MIC50 (Staphylococcus aureus; Methicillin-susceptible (9)): 0.031 mg/L (≈ 0.0745 µM)
MIC90 (Staphylococcus aureus; Methicillin-susceptible (9)): 0.5 mg/L (≈ 1.2 µM)
MIC (Staphylococcus aureus; [4]): 0.063 mg/L (≈ 0.151 µM)
MIC (Staphylococcus aureus; [5]): 0.063 mg/L (≈ 0.151 µM)
MIC (Staphylococcus aureus; [6]): 0.25 mg/L (≈ 0.6 µM)
MIC (Staphylococcus aureus; [7]): 32 mg/L (≈ 76.9 µM)
MIC (Staphylococcus aureus; [8]): 0.063 mg/L (≈ 0.151 µM)
MIC (Staphylococcus aureus; [9]): 0.25 mg/L (≈ 0.6 µM)
MIC90 (Haemophilus influenzae): 0.03 mg/L (≈ 0.0721 µM)
MIC Range (Haemophilus influenzae): ≤0.004 to 0.5 mg/L
MIC Range (Escherichia coli; [11]): ≤0.008 to 0.25 mg/L
MIC50 (Escherichia coli; [10]): 64 mg/L (≈ 154 µM)
MIC90 (Escherichia coli; [12]): 64 mg/L (≈ 154 µM)
MIC50 (Escherichia coli; [11]): 0.016 mg/L (≈ 0.0384 µM)
MIC90 (Escherichia coli; [11]): 0.032 mg/L (≈ 0.0769 µM)
MIC50 (Streptococcus pneumoniae; [35]): 0.12 mg/L (≈ 0.288 µM)
MIC Range (Streptococcus pneumoniae; [35]): ≤0.015 to 1 mg/L
MIC90 (Streptococcus pneumoniae; Erythromycin-resistant (86)): 0.25 mg/L (≈ 0.6 µM)
MIC90 (Streptococcus pneumoniae; Erythromycin-sensitive (216)): 0.25 mg/L (≈ 0.6 µM)
MIC90 (Streptococcus pneumoniae; Penicillin-intermediate (124)): 0.25 mg/L (≈ 0.6 µM)
MIC90 (Streptococcus pneumoniae; Penicillin-resistant (80)): 0.25 mg/L (≈ 0.6 µM)
MIC90 (Streptococcus pneumoniae; Penicillin-sensitive (98)): 0.25 mg/L (≈ 0.6 µM)
MIC90 (Streptococcus pneumoniae; [35]): 0.25 mg/L (≈ 0.6 µM)
MIC Range [1, 13]: 0.032 to 8 mg/L
MIC Range [1, 14]: ≤0.008 to 2 mg/L
MIC50 [1, 13]: 1 mg/L (≈ 2.4 µM)
MIC90 [1, 13]: 2 mg/L (≈ 4.8 µM)
MIC50 [1, 14]: 0.032 mg/L (≈ 0.0769 µM)
MIC90 [1, 14]: 1 mg/L (≈ 2.4 µM)
MIC90 [2]: 1 to 8 mg/L (≈ 2.4 to 19.2 µM)
MIC90 (Streptococcus pyogenes; Streptococcus pyogenes): 0.125 mg/L (≈ 0.3 µM)
MIC Range (Streptococcus pyogenes; Streptococcus pyogenes (n = 69)): 0.06 to 1 mg/L
% Susceptible (Yersinia enterocolitica): 100%
MIC50 (Yersinia enterocolitica): 0.06 mg/L (≈ 0.144 µM)
MIC90 (Yersinia enterocolitica): 0.06 mg/L (≈ 0.144 µM)
MIC Range (Yersinia enterocolitica): ≤0.015 to 0.25 mg/L
MIC [3, 15]: 1 mg/L (≈ 2.4 µM)
MIC [3, 16]: 4 mg/L (≈ 9.61 µM)
MIC [3, 17]: 4 mg/L (≈ 9.61 µM)
MIC [3, 18]: 4 mg/L (≈ 9.61 µM)
MIC [3, 19]: 4 mg/L (≈ 9.61 µM)
MIC ([3]; Clostridioides difficile): 1 mg/L (≈ 2.4 µM)
MIC [3, 20]: 0.125 mg/L (≈ 0.3 µM)
MIC [3, 21]: 0.125 mg/L (≈ 0.3 µM)
MIC ([3]; Cutibacterium acnes, ATCC11828): 1 mg/L (≈ 2.4 µM)
MIC ([3]; Eggerthella lenta, ATCC25559): 0.5 mg/L (≈ 1.2 µM)
MIC ([3]; Finegoldia magna, ATCC29328): 0.125 mg/L (≈ 0.3 µM)
MIC ([3]; Gemella morbillorum, ATCC27824): 0.25 mg/L (≈ 0.6 µM)
MIC [3, 22]: 0.06 mg/L (≈ 0.144 µM)
MIC [3, 23]: 4 mg/L (≈ 9.61 µM)
MIC [3, 24]: 4 mg/L (≈ 9.61 µM)
MIC [3, 25]: 1 mg/L (≈ 2.4 µM)
MIC [3, 26]: 0.125 mg/L (≈ 0.3 µM)
MIC [3, 27]: 1 mg/L (≈ 2.4 µM)
MIC [3, 28]: 1 mg/L (≈ 2.4 µM)
MIC [3, 29]: 0.25 mg/L (≈ 0.6 µM)
MIC ([3]; Parvimonas micra): 0.06 mg/L (≈ 0.144 µM)
MIC ([3]; Peptoniphilus asaccharolyticus): 0.5 mg/L (≈ 1.2 µM)
MIC ([3]; Peptoniphilus indolicus): 0.125 mg/L (≈ 0.3 µM)
MIC [3, 30]: 0.06 mg/L (≈ 0.144 µM)
MIC ([3]; Schaalia odontolytica): 4 mg/L (≈ 9.61 µM)
MIC [3, 31]: 0.06 mg/L (≈ 0.144 µM)
MIC [3, 32]: 0.125 mg/L (≈ 0.3 µM)
MIC [3, 33]: 0.125 mg/L (≈ 0.3 µM)
MIC [3, 34]: 0.5 mg/L (≈ 1.2 µM)
MIC50 (Acinetobacter spp.; Acinetobacter): 2 mg/L (≈ 4.8 µM)
MIC90 (Acinetobacter spp.; Acinetobacter): 16 mg/L (≈ 38.4 µM)
MIC Range (Acinetobacter spp.): ≤0.03 to 32 mg/L
